Test results as given in EP4796548A1, “PROTEOLYSIS-TARGETING CHIMERA COMPOUND FOR DEGRADING IRAK4 AND USE THEREOF” (Dovetree Medicines Unus, Inc., priority 2023, dated 2025).

Legend:
IRAK4 [1] = target: T1, IRAK4 (Homo sapiens, UniProt Q9NWZ3); test: cell-based; format: cell-based; set-up: endogenous in cells; host or cells: THP-1 cells; conditions: for DC50: WB, THP-1 cells, 24 hours incubation; for Dmax: THP-1
T1 sequence (Q9NWZ3 1-460): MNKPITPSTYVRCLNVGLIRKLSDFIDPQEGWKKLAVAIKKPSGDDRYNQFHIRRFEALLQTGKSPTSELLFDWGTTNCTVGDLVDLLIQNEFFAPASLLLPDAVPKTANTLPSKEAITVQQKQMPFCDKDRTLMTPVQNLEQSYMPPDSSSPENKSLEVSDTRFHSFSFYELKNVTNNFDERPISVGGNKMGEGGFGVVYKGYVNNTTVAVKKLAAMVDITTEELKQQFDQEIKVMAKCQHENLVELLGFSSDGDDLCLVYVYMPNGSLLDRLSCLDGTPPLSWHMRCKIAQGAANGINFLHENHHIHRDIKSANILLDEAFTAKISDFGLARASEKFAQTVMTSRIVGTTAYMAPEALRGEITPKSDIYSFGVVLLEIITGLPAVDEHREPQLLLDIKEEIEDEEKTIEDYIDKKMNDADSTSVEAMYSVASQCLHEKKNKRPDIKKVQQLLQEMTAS
Description: The degradation level of IRAK4 in THP-1 cells was detected by Western Blot technique. 1,000,000 THP-1 cells were seeded in a 12-well plate (Corning 3513) with 1 mL per well. A stock solution of the compound in 1000× gradient dilution was prepared, with a maximum concentration of 300 µM, and serially diluted with DMSO in 1:3, for a total of 9 doses. The compound in 1000× gradient dilution was added to the 12-well plate with 1 µL per well. After incubation under a condition of 37°C, 5% CO2 for 24 hours, the cells were collected into a 2 mL centrifuge tube, and centrifuged at 5,000 rpm for 5 minutes. The supernatant was discarded. 100 µL RIPA lysis solution (Beyotime, P0013C) was added. After mixing well, the cells were lysed on ice for 10 min, and centrifuged at 14,000 rpm at 4°C for 10 min. The supernatant was collected. Protein content was determined using BCA (Solarbio, PC0020-10*50T). 75 µL of the supernatant was taken, and 25 µL NuPAGE LDS Sample Buffer (4X) (Thermo B0007) (with 5% β-mercaptoethanol added before use) was added to each tube to prepare samples, followed by heating in a metal bath at 100°C for 5 min. 20 µL was loaded into a 4-12% Bis-Tris gel (Invitrogen, WG1402BOX) to prepare 1x NuPAGE™ MOPS buffer (Invitrogen, NP0001). The electrophoresis apparatus was set to a constant voltage of 120V for 1.5 hours. 1x NuPAGE™ MOPS SDS electrophoresis buffer (20X) (Invitrogen, NP0001) was prepared. The electrophoresis apparatus was set to a constant current of 300 mA for 100 minutes. The protein was transferred to a PVDF membrane (Millipore, IPVH00010). The PVDF membrane was blocked with a blocking solution (Licor, 927-60001) at room temperature for 1 h, IRAK4 antibody (Abcam ab32511) was diluted 1:1,000, GAPDH (Abcam ab8245) was diluted 1:3,000, and then the antibody was incubated overnight at 4°C. The next day, the membrane was washed three times with 1× TBST (Elabscience E-BC-R335), for 5 min each time. Secondary antibodies IR Dye 800 CW Goat anti-rabbit (Licor #926-32211) and IRDye® 680RD Goat anti-Mouse (Licor #926-68070) were diluted 1:10,000, followed by incubation in the dark at room temperature for 1 h. The membrane was washed three times with TBST, for 5 min each time. Using Odyssey imaging system Li-cor Odyssey Clx, signals were detected and data were analyzed. Data were analyzed using GraphPad (Prism 9.3) software with non-linear regression (non-liner inhibitor(Bell-shaped)) and a 4 parameter, with parameters as follows: • Span 1 =Plateau1-Dip • Span2=Plateau2-Dip Section1 = Span1/(1+10^(∧)((LogEC50_1−X)*nH1)) [formula] Section2 = Span2/(1+10^(∧)((X−LogEC50_2)*nH2)) [formula]
(§1) The equation is as follows: Y=Dip+Section1+Section2.

IRAK4 [2] = target: T1, IRAK4; test: detection of proteolysis by Hibit fluorescence (IRAK4 degradation); format: cell-based; set-up: host or cells: HEK293T cells (ATCC); conditions: for Dmax: HEK-293T; for DC50: Hibit, HEK293T cells transfected with HiBiT-tagged IRAK4 plasmid, 24 hours incubation
Description: Using the HiBiT tag technology, the sequence containing the HiBiT tag (Seq. ID. No. 1, 5'-[…]-3', Beijing Tsingke Biotech Co., Ltd.) was ligated to the IRAK4 plasmid (Seq. ID. No. 2, 5'-Eco[…] NOT1-3', Beijing Tsingke Biotech Co., Ltd.). The plasmid was transfected into HEK293T cells (ATCC), and the HiBiT […] was measured to characterize the compound-induced IRAK4 degradation. 300,000 HEK293T cells in 1 mL of DMEM medium (Gbico, 11965-092) were seeded into a 6-well plate (Corning 3516) , followed by being placed overnight in a constant incubator at 37°C, 5% CO2. 3 µL X-tremeGENE™ 9 DNA Transfection Reagent (Roche #06365787001), and 1 µg IRAK4 plasmid were added to 200 µL Opti-MEM (Gibico 31985062), followed by gentle mixing. The 6-well plate that had been incubated overnight was taken out and allowed to stand at room temperature for 15 minutes, followed by dropwise addition to the 6-well plate. After transient transfection for 6 hours, cells were digested with trypsin (Gibco, 25200-056) for one minute, followed by centrifugation at 1000 rpm for 3 minutes. 5000 HEK293T cells in 40 µL DMEM medium were seeded into a 384-well plate (Corning 3765), followed by being placed overnight in a constant incubator at 37°C, 5% CO2. Then, 40 nL of the compound was added to the 384-well plate using an Echo 655 Liquid Handler, with a highest final concentration of 10 µM, and a 1:3 serial dilution to give a total of 10 concentrations, followed by incubation at 37°C, 5% CO2 for 24 hours. The 384-well plate was removed and equilibrated to room temperature. 40 µL Nano-Glo® HiBiT Lytic Detection System (Promega N3030) was added to each well. After incubation at room temperature for 15 minutes, the fluorescence values were recorded using EnVision Xcite Multilabel Reader (PerkinElmer 2105-0020). Data were fitted and analyzed using Prism 9.3 software with non-linear regression (non-liner inhibitor(Bell-shaped)) and a 4 parameter, with parameters as follows: • Span1=Plateau1[…] • Span2=Plateau2-Dip Section1 = Span1/(1+10^(∧)((LogEC50_1−X)*nH1)) [formula] Section2 = Span2/(1+10^(∧)((X−LogEC50_2)*nH2)) [formula]
as §1

For `C[C@H]1CN(c2cccc3c2n(C)c(=O)n3C2CCC(=O)NC2=O)CCN1C[C@H]1CC[C@H](n2nc(C(F)F)c3cc(-c4ccc5cc(C(N)=O)cnn45)ncc32)CC1` (some centres unmarked) [Compound 9], the DC50 (IRAK4 [1]; read-out: DC50) was > 30 nM.
In the case of `Cn1c(=O)n(C2CCC(=O)NC2=O)c2cccc(N3CCN(C[C@H]4CC[C@H](n5nc(C(F)F)c6cc(-c7ccc8cc(C(N)=O)cnn78)ncc65)CC4)CC3)c21` (some centres unmarked) [Compound 4], the Dmax (IRAK4 [2]) is reported as < 60% and the DC50 (IRAK4 [2]) is reported as 1 to 5 nM.
In the case of `Cn1nc(C2CCC(=O)NC2=O)c2cccc(-c3cnn(C4CCN(C[C@H]5CC[C@H](n6nc(C(F)F)c7cc(-c8ccc9cc(C(N)=O)cnn89)ncc76)CC5)CC4)c3)c21` (some centres unmarked) [Compound 10], the Dmax (IRAK4 [1]) is reported as > 70% and the DC50 (IRAK4 [1]) is reported as < 10 nM.
For `Cn1c(=O)n(C2CCC(=O)NC2=O)c2cccc(N3CCN(C4CCN(C[C@H]5CC[C@H](n6nc(C(F)F)c7cc(-c8ccc9cc(C(N)=O)cnn89)ncc76)CC5)CC4)CC3)c21` (some centres unmarked) [Compound 5], the Dmax (IRAK4 [2]) was > 80%, the DC50 (IRAK4 [2]) was < 0.5 nM and the Dmax (IRAK4 [1]) was 60 to 70%. For the same compound, the DC50 (IRAK4 [1]) was < 10 nM.
For `C[C@@H]1CC2(CCN(c3cccc4c3n(C)c(=O)n4C3CCC(=O)NC3=O)CC2)CN1C[C@H]1CC[C@H](n2nc(C(F)F)c3cc(-c4ccc5cc(C(N)=O)cnn45)ncc32)CC1` (some centres unmarked) [Compound 17], the Dmax (IRAK4 [1]) was > 70% and the DC50 (IRAK4 [1]) was > 30 nM.
`C[C@H]1CN(C[C@H]2CC[C@H](n3nc(C(F)F)c4cc(-c5ccc6cc(C(N)=O)cnn56)ncc43)CC2)CCN1C1CCN(c2cccc3c2n(C)c(=O)n3C2CCC(=O)NC2=O)CC1` (some centres unmarked) [Compound 22] was tested, and the Dmax (IRAK4 [1]) was < 60% and the DC50 (IRAK4 [1]) was > 30 nM.
With `Cn1c(=O)n(C2CCC(=O)NC2=O)c2cccc(C#CCOC3CCN(C[C@H]4CC[C@H](n5nc(C(F)F)c6cc(-c7ccc8cc(C(N)=O)cnn78)ncc65)CC4)CC3)c21` (some centres unmarked) [Compound 8] the Dmax (IRAK4 [2]) was 70 to 80% and the DC50 (IRAK4 [2]) was < 0.5 nM.
For `C[C@@H]1CN(C2CCN(c3cccc4c3n(C)c(=O)n4C3CCC(=O)NC3=O)CC2)CCN1C[C@H]1CC[C@H](n2nc(C(F)F)c3cc(-c4ccc5cc(C(N)=O)cnn45)ncc32)CC1` (some centres unmarked) [Compound 12], the Dmax (IRAK4 [1]) was 60 to 70% and the DC50 (IRAK4 [1]) was > 30 nM.
`Cn1nc(C2CCC(=O)NC2=O)c2cccc(N3CCC(N4CCN(C[C@H]5CC[C@H](n6nc(C(F)F)c7cc(-c8ccc9cc(C(N)=O)cnn89)ncc76)CC5)CC4)CC3)c21` (some centres unmarked) [Compound 19] was tested, and the Dmax (IRAK4 [1]) was > 70% and the DC50 (IRAK4 [1]) was < 10 nM.
`Cn1c(=O)n(C2CCC(=O)NC2=O)c2cccc(N[C@H]3CC[C@H](N(C)C[C@H]4CC[C@H](n5nc(C(F)F)c6cc(-c7ccc8cc(C(N)=O)cnn78)ncc65)CC4)CC3)c21` (some centres unmarked) [Compound 7] was tested, and the Dmax (IRAK4 [2]) was 60 to 70% and the DC50 (IRAK4 [2]) was < 0.5 nM.
`Cn1c(=O)n(C2CCC(=O)NC2=O)c2cccc(-c3cnn(C4CCN(C[C@H]5CC[C@H](n6nc(C(F)F)c7cc(-c8ccc9cc(C(N)=O)cnn89)ncc76)CC5)CC4)c3)c21` (some centres unmarked) [Compound 11] was tested, and the Dmax (IRAK4 [1]) was < 60% and the DC50 (IRAK4 [1]) was > 30 nM.
With `Cn1c(=O)n(C2CCC(=O)NC2=O)c2cccc(N3CCC4(CCN(C[C@H]5CC[C@H](n6nc(C(F)F)c7cc(-c8ccc9cc(C(N)=O)cnn89)ncc76)CC5)C4)CC3)c21` (some centres unmarked) [Compound 6] the Dmax (IRAK4 [2]) was > 80%, the DC50 (IRAK4 [2]) was < 0.5 nM and the Dmax (IRAK4 [1]) was > 70%. The DC50 (IRAK4 [1]) was < 10 nM.
`C[C@H]1CN(C2CCN(c3cccc4c3n(C)c(=O)n4C3CCC(=O)NC3=O)CC2)CCN1C[C@H]1CC[C@H](n2nc(C(F)F)c3cc(-c4ccc5cc(C(N)=O)cnn45)ncc32)CC1` (some centres unmarked) [Compound 13] was tested, and the Dmax (IRAK4 [1]) was > 70% and the DC50 (IRAK4 [1]) was > 30 nM.
For `Cn1c(=O)n(C2CCC(=O)NC2=O)c2cccc(N3CCC(N4CCN(C[C@H]5CC[C@H](n6nc(C(F)F)c7cc(-c8ccc9cc(C(N)=O)cnn89)ncc76)CC5)CC4)CC3)c21` (some centres unmarked) [Compound 2], the Dmax (IRAK4 [2]) was > 80%, the DC50 (IRAK4 [2]) was < 0.5 nM and the Dmax (IRAK4 [1]) was > 70%. The DC50 (IRAK4 [1]) was < 10 nM.
With `Cn1c(=O)n(C2CCC(=O)NC2=O)c2cccc(N3CCC4(CCN(C[C@H]5CC[C@H](n6nc(C(F)F)c7cc(-c8ccc9cc(C(N)=O)cnn89)ncc76)CC5)CC4)CC3)c21` (some centres unmarked) [Compound 1] the Dmax (IRAK4 [2]) was > 80%, the DC50 (IRAK4 [2]) was < 0.5 nM and the Dmax (IRAK4 [1]) was > 70%. The DC50 (IRAK4 [1]) was < 10 nM.
In the case of `Cn1c(=O)n(C2CCC(=O)NC2=O)c2cccc(N3CCC4(CCN(C[C@H]5CC[C@H](n6nc(C(F)F)c7cc(-c8ccc9cc(C(N)=O)cnn89)ncc76)CC5)CC4)C3)c21` (some centres unmarked) [Compound 3], the Dmax (IRAK4 [2]) is reported as 70 to 80% and the DC50 (IRAK4 [2]) is reported as < 0.5 nM.
In the case of `Cn1nc(C2CCC(=O)NC2=O)c2cccc(N3CCC4(CCN(C[C@H]5CC[C@H](n6nc(C(F)F)c7cc(-c8ccc9cc(C(N)=O)cnn89)ncc76)CC5)C4)CC3)c21` (some centres unmarked) [Compound 20], the Dmax (IRAK4 [1]) is reported as < 60% and the DC50 (IRAK4 [1]) is reported as 10 to 30 nM.
